Counter-ions that a name gives are not always drawn.
Test: Aqueous chemical stability in phosphate buffer (HPLC, first-order decay)
Format: physicochemical
Details: half-life of the compound in buffer phosphate (100 mM), pH 8, 37° C., half-lives >360 min estimated from initial slope at low conversion (<10%)
Experimental: Stock solutions of the compounds in acetonitrile or acetonitrile/methanol were prepared at 20 mg/mL. and 20 μL, spiked into 3 mL of buffer phosphate (100 mM) and incubated at 37° C. Aliquots (50 μL) were sampled at different time points and diluted 20 fold with ammonium formate (pH 3.5)/acetonitrile. The diluted samples were analyzed by HPLC. The peak areas corresponding to the compounds were plotted against time and the data were fitted to a first-order mono-exponential decay where the rate constant and the half-life were determined (Table 2).

Row | Structure (SMILES) | pH 8 (t½, min) [min]
1 | COC(=O)/C=C/C(=O)OC(C)CN(C)C (stereo not drawn) [Compound 6, 1-(dimethylamino)propan-2-yl methyl fumarate hydrochloride] | 2.0
2 | COC(=O)/C=C/C(=O)OCCN1CCSCC1 [Compound 7, Methyl (2-thiomorpholinoethyl) fumarate hydrochloride] | 26.0
3 | COC(=O)/C=C/C(=O)OCCNc1ccccc1 [Compound 8, Methyl (2-(phenylamino)ethyl) fumarate hydrochloride] | 36.0
4 | COC(=O)/C=C/C(=O)OCC(C)(C)N(C)C [Compound 9, 2-(dimethylamino)-2-methylpropyl methyl fumarate hydrochloride] | 7.0
5 | COC(=O)/C=C/C(=O)OCCS(C)(=O)=O [Compound 10, Methyl (2-(methyl sulfonyl)ethyl) fumarate] | 67.0
6 | COC(=O)/C=C/C(=O)OCCN(C)c1ccccc1 [Compound 12, Methyl (2-(methyl(phenyl)amino)ethyl) fumarate hydrochloride] | 396

Next, values leading:

Row | pH 8 (t½, min) [min] | Structure (SMILES)
7 | >240 | COC(=O)/C=C/C(=O)OCCN1CCS(=O)(=O)CC1 [Compound 11, 2-(1,1-dioxidothiomorpholino)ethyl methyl fumarate hydrochloride]
8 | 144 | COC(=O)/C=C/C(=O)OCCN1C(=O)CCC1=O [Compound 14, 2-(2,5-dioxopyrrolidin-1-yl)ethyl methyl fumarate]
9 | 3.0 | COC(=O)/C=C/C(=O)OCCN1CCCCC1 [Compound 15, Methyl (2-(piperidin-1-yl)ethyl) fumarate hydrochloride]
10 | 20.0 | COC(=O)/C=C/C(=O)OCCN1CCOCC1 [Compound 16, Methyl (2-morpholinoethyl) fumarate hydrochloride]
11 | 11.0 | COC(=O)/C=C/C(=O)OCCN1CCC2(CC1)OCCO2 [Compound 17, 2-(1,4-dioxa-8-azaspiro[4.5]decan-8-yl)ethyl methyl fumarate hydrochloride]
12 | 5.0 | COC(=O)/C=C/C(=O)OCCN1CCCC1 [Compound 18, Methyl (2-(pyrrolidin-1-yl)ethyl) fumarate hydrochloride]
13 | 6.0 | COC(=O)/C=C/C(=O)OCCN(C)C [Compound 19, 2-(dimethylamino)ethyl methyl fumarate hydrochloride]
14 | 5.0 | CCN(CC)CCOC(=O)/C=C/C(=O)OC [Compound 20, 2-(diethylamino)ethyl methyl fumarate hydrochloride]
15 | 120 | CCN(CC)C(=O)COC(=O)/C=C/C(=O)OC [Reference Compound A, 2-(diethylamino)-2-oxoethyl methyl fumarate, reference compound]
